This is an account of results in publication PMC8481799, “Lichen Polyphenolic Compounds for the Eradication of Candida albicans Biofilms” (Frontiers in Cellular and Infection Microbiology, 2021).

Data set [1] deals with Candida albicans biofilms on the maturation phase. Nature of the data set: Anti-maturation test (XTT), compounds added after 2 h adherence. Format: cell-based, Candida albicans ATCC 28367. The conditions noted are these: Candida albicans. How it is done: (§1) The anti-maturation and/or anti-biofilm activities of lichen compounds were assessed as previously described ([Millot et al., 2017]). Briefly, C. albicans (ATCC® 28367™) cultures were prepared at a final concentration of 1 × 10^7 cells/ml in yeast nitrogen base medium (Difco, Detroit, MI), supplemented with 50 mM glucose (Sigma, St Louis, MO) (YNB-Glc) from a preculture incubated overnight at 37°C without shaking.
(§2) A total of 200 µl of yeast culture was added to each well of untreated 96-well tissue culture plates. The plates were then incubated at 37°C for 2 h for the anti-maturation test and for 24 h for the anti-biofilm test. After aspiration of spent media and free-floating microorganisms, 250 μl per well of YNB-Glucose and 50 μl lichen compound samples obtained by serial twofold dilutions of each stock solution over the final range 200 to 0.097 μg/ml or 200 to 6.25 μg/ml were added to wells. Controls were also present: untreated yeasts (negative control) and yeasts treated with 2% DMSO. After 24 and/or 48 h of incubation at 37°C followed by aspiration of spent media and free-floating microorganisms, the wells were washed with phosphate-buffered saline (PBS) and observed under an inverted optical microscope (IX51® inverted microscope, Olympus). Biofilms were quantified using a metabolic assay based on the reduction of a tetrazolium salt (XTT) and absorbance measurements at 492 nm (microplate reader LP400; Sanofi Diagnostics Pasteur) ([Cocuaud, 2005]; [Dalleau et al., 2008]). The percent inhibition was determined from the absorbance values compared to the mean absorbance value obtained for untreated wells (100%).
(§3) Concentrations of lichen products inhibiting 50% of biofilms were determined for each tested sample by constructing a dose–response curve and selecting the closest tested concentration value above or equal to 50% inhibition. All anti-maturation and anti-biofilm tests were performed at least in triplicate in at least two separate experiments. The lichen compounds with MMIC50 or/and MBIC50 less than 100 μg/ml were considered as potentially useful.
(§4) Anti-maturation and anti-biofilm tests were performed with C. albicans ATCC® 28367™, as previously described, in 96-well microplates with evernic acid alone, cyclodextrin alone, and evernic acid included in cyclodextrin at over 50 to 1.5 µM final range of evernic acid (serial twofold dilution).

For data set [2], the system named is Candida albicans preformed 24-h-old biofilm. Nature of the data set: Anti-biofilm test (XTT) on preformed 24-h-old biofilm. It counts as cell-based, Candida albicans ATCC 28367. Here is the method:
as §1, §2, §3, §4

Data set [3] concerns HeLa human epithelial cervix cells. Nature of the data set: Growth inhibition of HeLa cells (MTT, 72 h). It counts as cell-based. The conditions noted are these: for Growth inhibition of HeLa cells (% inhibition): 72 h. Here is the method: HeLa human epithelial cervix cells were grown as monolayers at 37°C in a 5% CO2–95% air humidified atmosphere in RPMI supplemented with 10% FBS and […] gentamycin and streptomycin. Cells (2,000 cells/well) were seeded into each well of 96-well plates. […] The final DMSO concentration was less than 1% and tested as a negative control. Cell viability at 72 h was studied using the MTT assay. Then, 5 µl of MTT (10 mg/ml) was added to each well, and the plates were incubated for 4 h. The medium was then removed by aspiration, and 200 µl DMSO was added to each well. Proliferation was determined spectrophotometrically by measuring the absorbance at 540 nm. The percent of growth inhibition (%GI) was calculated as follows: %GI = [(DO (ʎ540 nm) control - DO (ʎ540 nm) treated)/DO (ʎ540 nm) control] * 100. All experiments were performed in duplicate with at least two replicate experiments.

The next data set concerns red blood cells. Kind of data set: Hemolysis test. It counts as cell-based. The conditions noted are these: at 100 µg/ml, 1 h. How it is done: Then, 480 µl of each dilution was added to 20 µl of healthy red blood cells (Poitiers University Hospital, Hematology Department) in microtubes (final hematocrit = 4%). Some microtubes were reserved for controls: untreated red blood cells (negative control), cells treated with sterile distilled water (positive control = 100% hemolysis), and cells treated with 1% DMSO. After 1 h of incubation at 37°C, the tubes were centrifuged for 10 s at 14,000 g (A14 centrifuge Jouan) twice, and 200 µl of each supernatant was transferred into 96-well microtiter plates for colorimetric measurements at 450 nm (microplate reader LP400; Sanofi Diagnostics Pasteur) in order to determine the hemolysis percentages of each compound ([Evans et al., 2013]). All tests were performed in duplicate (at least two separate experiments).

On the set-up of data set [4]: method as in Shcherbakova et al. (2021). Particulars: ref Shcherbakova et al. (2021); cited from earlier work.
Where [5] appears, read: 24 h of treatment, read-out: Anti-maturation activity MMIC50.
The mark [6] stands for this setting: 48 h of treatment, read-out: Anti-maturation activity MMIC50.
[7] abbreviates: Candida albicans, 24 h, 24 h of treatment, 24-h-old biofilm, read-out: Anti-biofilm activity MBIC50.
Setting [8] is: Candida albicans, 48 h, 48 h of treatment, 24-h-old biofilm, read-out: Anti-biofilm activity MBIC50.

≈ marks a conversion by molar mass, not a printed value. Where “and” joins values, the source holds several entries; their conditions need not be identical. Identical values can stand only once. Like-named read-outs stand apart in the source and are kept apart here.

Take `COc1cc(C)c2c(c1C=O)Oc1c(c(C)c(O)c3c1C(O)OC3=O)OC2=O` (centres unmarked) [Compound 8, stictic acid]: the IC50 in data set [1] (setting [5]) was 200 µg/mL (≈ 518 µM); in data set [1] (setting [6]), 200 µg/mL (≈ 518 µM); in data set [2] (setting [7]), over 200 µg/mL; in data set [2] (setting [8]) it was over 200 µg/mL.

On to `COc1cc(C)c(C(=O)Oc2cc(C)c(C(=O)O)c(O)c2C)c(O)c1C(=O)O` [Compound 2, Squamatic acid], for which, in data set [3] (at 12.5 µg/ml), the “Growth inhibition of HeLa cells (% inhibition)” value was determined as 14.8 ± 1.6%. In the data set with red blood cells, the “Hemolytic activity (%)” value is 0.4 ± 0.01%. The IC50 in data set [1] (setting [5]) was 50 µg/mL and 128 µM; in data set [1] (setting [6]), 12.5 µg/mL and 32 µM; in data set [2] (setting [7]), over 200 µg/mL; in data set [2] (setting [8]), over 200 µg/mL.

In the case of `COc1cc(C)c(C(=O)Oc2c(C)c(C(=O)O)c(O)c(C=O)c2O)c(O)c1C(=O)O` [Compound 3, thamnolic acid], the “Growth inhibition of HeLa cells (% inhibition)” value in data set [3] (at 12.5 µg/ml) was determined as 11.0 ± 0.9%. Also, in the data set on red blood cells, the “Hemolytic activity (%)” value is on record as 4.0 ± 0.02%. Also, the IC50 in data set [1] (setting [5]) is 50 µg/mL and 120 µM; in data set [1] (setting [6]), 12.5 µg/mL and 30 µM; in data set [2] (setting [7]), over 200 µg/mL; in data set [2] (setting [8]), over 200 µg/mL.

Regarding `Cc1cc(OC(=O)c2c(C)cc(OC(=O)c3c(C)cc(O)cc3O)cc2O)cc(O)c1C(=O)O` [Compound 5, gyrophoric acid], the “Growth inhibition of HeLa cells (% inhibition)” value in data set [3] (at 100 µg/ml) came out at 70.0 ± 2.3%. In addition, the “Hemolytic activity (%)” value with red blood cells is reported as 0.5 ± 0.27%. Further, the IC50 was over 200 µg/mL in data set [1] (setting [5]), 100 µg/mL (≈ 213 µM) in data set [1] (setting [6]), over 200 µg/mL in data set [2] (setting [7]) and over 200 µg/mL in data set [2] (setting [8]).

Consider `CCCCCC(=O)Cc1cc(O)cc2c1C(=O)Oc1cc(O)c(C(=O)O)c(CCCCC)c1O2` [Compound 9, physodic acid], for which the IC50 in data set [1] (setting [5]), in data set [1] (setting [6]), in data set [2] (setting [7]) and in data set [2] (setting [8]) was over 200 µg/mL in each case.

With `Cc1cc(O)c(C=O)c2c1C(=O)Oc1c(C)c(O)c3c(c1O2)C(O)OC3=O` (centres unmarked) [Compound 6, norstictic acid], the IC50 in data set [1] (setting [5]), in data set [1] (setting [6]), in data set [2] (setting [7]) and in data set [2] (setting [8]) was over 200 µg/mL in each case.

For the compound `COc1cc(C)c(C(=O)Oc2cc(C)c(C(=O)O)c(O)c2)c(O)c1` [Compound 1, Evernic acid], the figures for the “Growth inhibition of HeLa cells (% inhibition)” value in data set [3] (at 6.125 µg/ml) and in data set [3] (at 100 µg/ml) were 22.2 ± 2.8% and “more than 70%”, respectively. In addition, the “Inhibition of HeLa cell growth” value in data set [3] (at the lowest tested / minimal active concentration (12.5 or 6.25 µg/ml)) worked out at 22%. Besides, in data set [4], the Predicted cytotoxicity risks entry was “absence of mutagenic, tumorigenic, reproductive, and irritant effects”. Moreover, the “Hemolytic activity (%)” value in the data set with red blood cells is recorded as 0%; in the data set with red blood cells (listed as Evernic acid), “no hemolytic activity”; in the data set on red blood cells (listed as evernic acid), “no effect at all”. In addition, the IC50 was 100 µg/mL (≈ 301 µM) in data set [1] (setting [5]); 6.25 µg/mL and 18 µM in data set [1] (setting [6]); under 12.5 µM in data set [2] (48 h of treatment, 24-h-old biofilm, listed as Evernic acid, read-out: Anti-biofilm activity MBIC50); 37 µM in data set [2] (48 h of treatment, 24-h-old biofilm, listed as evernic acid, read-out: Anti-biofilm activity MBIC50); 37.5 µM in data set [2] (48 h of treatment, 24-h-old biofilm, read-out: Anti-biofilm activity MBIC50); 200 µg/mL in data set [2] (setting [7]). The IC50 in data set [2] (setting [8]) was at most 12.5 µg/mL; in data set [2] (Candida albicans, 48 h, cyclodextrin experiment, 1.5 to 50 µM, 48 h of contact, read-out: Concentration giving 50% inhibition of the biofilm) it was 12.5 µM. Moreover, the “Anti-biofilm activity MBIC50” value in data set [2] (48 h of treatment, 24-h-old biofilm) came to 12.5 µg/mL.

For the compound `COC(=O)c1c(C)cc(OC(=O)c2c(C)cc(O)c(C=O)c2O)c(C)c1O` [Compound 4, atranorin], the “Growth inhibition of HeLa cells (% inhibition)” value in data set [3] (at 100 µg/ml) was determined as 84.5 ± 6.8%. The “Hemolytic activity (%)” value in the data set on red blood cells was determined as 0%. Besides, the IC50 is at least 100 µg/mL in data set [1] (incubation time not stated, read-out: MMIC50 (anti-maturation IC50)); over 200 µg/mL in data set [1] (setting [5]); over 200 µg/mL in data set [1] (setting [6]); over 200 µg/mL in data set [2] (setting [7]); over 200 µg/mL in data set [2] (setting [8]).

With `CCCCCC(=O)Cc1cc(O)c(O)c2c1C(=O)Oc1cc(O)c(C(=O)O)c(CCCCC)c1O2` [Compound 10, 3-hydroxyphysodic acid], the IC50 in data set [1] (setting [5]) was over 200 µg/mL; in data set [1] (setting [6]), 100 µg/mL (≈ 206 µM); in data set [2] (setting [7]), over 200 µg/mL; in data set [2] (setting [8]), 100 µg/mL.

On to `Cc1cc(O)c(C=O)c2c1C(=O)Oc1c(CO)c(O)c3c(c1O2)[C@@H](O)OC3=O` [Compound 7, salazinic acid], for which the IC50 in data set [2] (setting [7]) and in data set [2] (setting [8]) was over 200 µg/mL in each case.
